Several values for one entry are separate records, joined by “and”; a condition that tells them apart may be missing. Identical values can stand only once.
Columns and labels:
[1] = system: Fbnic1^C1039G/+ Marfan Syndrome (MFS) mice; conditions: FA diet; cited from earlier work
[2] = system: Ang II infused apoE null mice; assay: Verhoeff-Van Gieson (VVG) staining, medial elastin degradation; type: in vivo; conditions: FA 15 mg/kg/day oral
Description: To assess medial elastin degradation, VVG staining was performed using aortic sections from all experimental groups.
Paraffin embedded aortic sections were deparaffinized by sequential washes in xylene (2x), descending ethanol from 100%, 90%, 75% to 50%, and distilled water. Sections were stained in Verhoeff s solution for 70 min, followed by differentiation in 2% ferric chloride for 90 seconds. Sections were incubated with 5% sodium thiosulfate for 60 seconds, followed by counterstaining with Van Gieson's solution. Sections were then subjected to dehydration with 95% and 100% alcohol, and finally washed in xylene. After drying, sections were mounted with Permount mounting media (SP15-100, Thermo-Fisher Scientific, Pittsburgh, PA, USA), and images captured by a Nikon TE2000-U fluorescent microscope.

[3] = system: Ang II infused apoE null mice; assay: Incidence of AAA in Ang II infused apoE null mice (ultrasound and post-mortem inspection); type: in vivo
Description: The use of animals and experimental procedures were approved by the Institutional Animal Care and Usage Committee (IACUC) at the University of California Los Angeles (UCLA). Breeders of apoE null mice were purchased from Jackson Labs (Bar Harbor, ME, Strain B6.129P2-ApoEtmlUnc/J), and bred in house. Animals were kept in ventilated cages, with free access to water and standard chow under the standard care of Division of Laboratory Animal Medicine (DLAM) staff. Male apoE null mice of 6-8 months old were used for experimentation.
The animals receiving Ang II infusion were anesthetized in an isoflurane chamber with 5% isoflurane, and then moved to a nose cone with sustained supply of 1.5-2% isoflurane to maintain the anesthetic state. The back area between the shoulder blades was cleaned of hair and disinfected. Then a small incision was made at the cleaned site; the osmotic minipump (Alzet, model 2004) containing Ang II (1000 ng/kg/min, Sigma-Millipore, St. Louis, MO, USA) was subcutaneously implanted into the mice. The surgical wounds were closed with surgical staples, and then animals were allowed to recover in a heated cage.
At the end of the study period of 4 weeks, animals were euthanized with CO2. The aortas were rapidly removed from the body, rinsed with ice cold Krebs/HEPES buffer, and cleaned of connective tissue and fat. The incidence of AAA was determined by ultrasound assessment of abdominal aortic expansion as described above, and by direct inspection of the abdominal aortas post-mortem.

[4] = system: Ang II infused apoE null mice; assay: H&E staining of aortic sections, vascular remodeling; type: in vivo; conditions: FA 15 mg/kg/day oral
Description: To examine the extent of the vascular remodeling that occurred during AAA in the presence of various treatments, freshly isolated aortas were embedded in paraffin, sectioned and stained with hematoxylin-eosin (H&E).
At the end of the study period of 4 weeks, animals were euthanized with CO2. The aortas were rapidly removed from the body, rinsed with ice cold Krebs/HEPES buffer, and cleaned of connective tissue and fat. […] For histological analyses, small sections (5 mm) of the abdominal aortas of the suprarenal region were removed and fixed in 4% paraformaldehyde overnight, followed by incubation for 24 hours in 10% sucrose, and then embedded in paraffin. In the case of AAA, a center section of the AAA was used for these analyses. Sections were sliced at 5μm at UCLA Pathology Core, and subjected to hematoxylin-eosin (H&E) staining following standard protocol.

[5] = system: Ang II infused apoE null mice; assay: Ultrasound detection of abdominal aortic size (enlargement of abdominal aortas); type: in vivo; conditions: FA 15 mg/kg/day oral; weekly ultrasound over 4 weeks; vs. apoE+Ang II
Description: The back area between the shoulder blades was cleaned of hair and disinfected. Then a small incision was made at the cleaned site; the osmotic minipump (Alzet, model 2004) containing Ang II (1000 ng/kg/min, Sigma-Millipore, St. Louis, MO, USA) was subcutaneously implanted into the mice. The surgical wounds were closed with surgical staples, and then animals were allowed to recover in a heated cage. […] The enlargement of abdominal aortas in various experimental groups was monitored using ultrasound. Animals were anesthetized with isoflurane and placed on a temperature-controlled table. Isoflurane levels were adjusted throughout the experiment to maintain heart rate between 400 and 500 bpm while keeping the animal sufficiently anesthetized. Hair was removed from the abdomen using a hair removal cream, and preheated ultrasound transmission gel was applied onto the abdomen area. An ultrasound probe was placed on the gel to visualize aorta transversely (Vevo 2100, MS400, 30 MHz. FUJIFILM VisualSonics, Inc., Toronto, Ontario, Canada). The aorta was identified using Doppler measurement for the presence of pulsatile flow.

[6] = system: Ang II infused hph-1 mice; conditions: oral FA administration; cited from earlier work
[7] = system: Ang II-infused apoE null mice; conditions: oral FA administration, previously observed; cited from earlier work
[8] = system: aortic H4B; assay: HPLC determination of aortic H4B bioavailability; type: in vivo, mice; conditions: FA 15 mg/kg/day oral
Description: After centrifugation, 10 μl of the supernatant was injected into a HPLC system equipped with a fluorescent detector (Schimadzu America Inc, Carlsbad, CA, USA). Excitation and emission wavelengths of 350 nm and 450 nm were used to measure H4B levels.

[9] = system: total superoxide production in aortas; assay: Electron spin resonance determination of total aortic superoxide production; type: in vivo, mice; conditions: FA 15 mg/kg/day oral; ESR
Description: Therefore, changes in aortic total superoxide production and eNOS uncoupling activity from all treatment groups is examined herein. Freshly prepared aortic lysates were subjected to electron spin resonance (ESR) determination of superoxide production with and without L-NAME, an inhibitor of NOS. If eNOS is functional and coupled, its inhibition by L-NAME will increase the measured superoxide, as eNOS is producing NO to scavenge superoxide. However, if eNOS is dysfunctional, uncoupled and producing superoxide, its inhibition with L-NAME will lead to a decrease in measured superoxide.
Aortic superoxide production was determined by electron spin resonance (ESR). In brief, freshly isolated aortas were homogenized in lysis buffer containing 1:100 protease inhibitor cocktail (MilliporeSigma, P8340), centrifuged at 12,000 rpm for 15 min, and protein supernatant collected. After determination of protein concentration using a protein assay kit (Bio-Rad), five μg of the protein was loaded into ice-cold and nitrogen bubbled modified Krebs/HEPES buffer (KHB, in mmol/L: NaCl 99; KCl 4.7; MgSO41.2; KH2PO4 1.0; CaCl2 1.9; NaHCO3 25; glucose 11.1, NaHEPES 20) containing diethyldithiocarbamic acid (5 mmol/L), deferoxamine (25 mmol/L), and the superoxide specific spin trap methoxycarbonyl-2,2,5,5-tetramethylpyrrolidine (CMH, 500 μmol/L, Axxora, San Diego, CA, USA). […]

[10] = system: AAA formation; conditions: both low and high dose of Nifedipine alone; earlier study; cited from earlier work

SMILES	formation of TAA and AAA [1]	elastin degradation featured by flattening and breakdown [2]	incidence of AAA ([3]; FA 15 mg/kg/day oral in chow, 4 weeks Ang II infusion, Ang II alone 85.71%)	numbers of animals developed AAA and animals examined ([3]; FA 15 mg/kg/day, b210 developed out of examined, b50 examined/developed)	vascular remodeling featured by elastic degradation and adventitial hypertrophy [4]	enlargement of abdominal aortas [5]	AAA formation [6]	aneurysm formation [7]	Ang II induced H4B deficiency [8]	total superoxide production in aortas [9]	AAA formation [10]
Nc1nc2ncc(CNc3ccc(C(=O)N[C@@H](CCC(=O)O)C(=O)O)cc3)nc2c(=O)[nH]1 [FA, folic acid]	attenuated formation of TAA and AAA	significantly attenuated	18.75%	6 out of 32 and 32/6	markedly attenuated	significantly attenuated	markedly attenuated	abrogated aneurysm formation	significantly abrogated	markedly abrogated	–
COC(=O)C1=C(C)NC(C)=C(C(=O)OC)C1c1ccccc1[N+](=O)[O-] [Nifedipine]	–	–	–	–	–	–	–	–	–	–	able to attenuate AAA formation
